This is an account of results in ChEMBL document CHEMBL1201862, “PubChem BioAssay data set” (2004).

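Grown in 96-well plates, cells were treated for 48 hours with each compound at five concentrations. Insufficient inhibition: endpoint recorded as highest concentration tested. At the GI50, growth is halved.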 Activity calls are given as the source filed them. Rule as the data show it: active = GI50 up to about 1.1 µM and inactive = higher.

Holding throughout (experiment): NCI anticancer screen, dose series, 48 h
Experiment [1] has as its system XF498.
Experiment [2] deals with HOP-18.
For experiment [3], the system named is M19-MEL.
Experiment [4] relates to SNB-78.
Experiment [5] relates to KM-20L2.
The subject of experiment [6] is LXFL 529.
For experiment [7], the system named is DMS-273.
Experiment [8] concerns DMS-114.
The test system of experiment [9] is RXF 631.

As for `C1OC1CN1CCN(CC2CO2)CC1` (stereo not given), the GI50 in [1] was > 100 µM (inactive); in experiment [2], 66.7 µM (inactive); in [3], > 100 µM (inactive); in experiment [4], > 100 µM (inactive); in [5], > 100 µM (inactive); in [6] it was > 100 µM (inactive). The GI50 in [7] is 16.1 µM (inactive); in [8] it was 12.8 µM (inactive).

Turning to `Fc1cccc2c1cc1ccc3cccc4ccc2c1c34`, the GI50 in [1], in experiment [2], in experiment [3], in experiment [4], in experiment [5] and in experiment [6] was > 100 µM (inactive) each time. For the same molecule, the GI50 in experiment [7] was > 100 µM (inactive).

On to `C#Cc1ccccc1N1C(=O)C=CC1=O`, for which the GI50 in experiment [3], in experiment [4], in [5], in experiment [6] and in [8] was > 100 µM (inactive) in each case.

On to `C/C(=C1/CCCC2(N=NCC2c2ccccc2)C1=O)c1ccccc1` (stereo not given), for which the GI50 in [1] was 17.4 µM (inactive); in experiment [2], 51.1 µM (inactive); in [3], 22.3 µM (inactive); in experiment [4], 25.4 µM (inactive); in experiment [5], 25.6 µM (inactive); in [6], 17.3 µM (inactive). For the same molecule, the GI50 in [7] was 15.9 µM (inactive); in experiment [8] it was 9.16 µM (inactive).

Take `O=C(Nc1nc2ncn(CCO)c2c(=S)[nH]1)c1ccccc1`: the GI50 in experiment [1] is > 100 µM (inactive); in experiment [2] it was > 100 µM (inactive); in experiment [3], > 100 µM (inactive); in [9] it was > 10 µM (inactive); in experiment [4], > 100 µM (inactive); in [5] it was > 100 µM (inactive). The GI50 in experiment [6], in experiment [7] and in experiment [8] was > 100 µM (inactive) in each case.

As to `Cc1nc2cc(N)c(F)cc2[nH]1`, the GI50 in experiment [1], in experiment [3], in [4], in experiment [6], in experiment [7] and in experiment [8] was > 100 µM (inactive) each time.

In the case of `CC(C)=CC(=O)CC(=O)C(=O)NCCNC(=O)C(=O)CC(=O)C=C(C)C`, the GI50 in [1], in [2], in [3], in [4], in experiment [5] and in [6] was > 50 µM (inactive) in each case. Moreover, the GI50 in experiment [7] and in experiment [8] was > 50 µM (inactive) each time.

Take `COC(=O)C(Cc1nc2ccc(Cl)cc2nc1O)/C(=N\N)C(=O)Nc1cc(C)c(Cl)cc1S(=O)(=O)O` (stereo not given): the GI50 in experiment [4] was > 100 µM (inactive); in [6] it was > 100 µM (inactive); in [8], 73.5 µM (inactive).

For the molecule `O=C1NC2=C(CCCCC/C2=N\O)C12CCCCCC2`, the GI50 in [1], in experiment [2], in experiment [3], in experiment [4], in [6] and in experiment [7] was > 100 µM (inactive) throughout. Besides, the GI50 in experiment [8] is > 100 µM (inactive).

Turning to `O=C(CCC(=O)Nc1ccc(Cl)cc1)CC(=O)c1ccc2ccccc2c1`, the GI50 in experiment [2], in experiment [3], in experiment [9], in experiment [4], in experiment [5] and in [6] was > 100 µM (inactive) throughout. The GI50 in experiment [7] and in experiment [8] was > 100 µM (inactive) throughout.

Turning to `O=C1C/C(Br)=C\c2ccccc2-c2ccccc21`, the GI50 in experiment [1] was 1.76 µM (inactive); in experiment [2], 4.48 µM (inactive); in experiment [3], 1.87 µM (inactive); in experiment [4], 3.85 µM (inactive); in experiment [5], 2.84 µM (inactive); in experiment [6] it was 1.73 µM (inactive). The GI50 in experiment [7] was 2.19 µM (inactive); in [8], 2.79 µM (inactive).

In the case of `CCOC(=O)C(OCC1CC=CCC1)Sc1ccccc1` (stereo not given), the GI50 in [2], in experiment [3], in experiment [4], in experiment [5], in experiment [6] and in [7] was > 100 µM (inactive) each time. Also, in [8], the GI50 was > 100 µM (inactive).

On to `CC#COP(=O)(OCC)OCC`, for which the GI50 in experiment [3], in [9], in experiment [4], in experiment [5], in experiment [6] and in experiment [8] was > 100 µM (inactive) throughout.

For `O=C1C=C2CCCC2C(C(=O)O)(C(=O)O)C1` (stereo not given), the GI50 in [1], in experiment [3], in experiment [9], in experiment [4], in experiment [6] and in [7] was > 100 µM (inactive) in each case. Moreover, in experiment [8], the GI50 was > 100 µM (inactive).

Regarding `CC(C)NC(C)C(C)c1ccccc1` (stereo not given), the GI50 in experiment [1], in experiment [3], in experiment [5], in experiment [6], in experiment [7] and in experiment [8] was > 100 µM (inactive) in each case.

Consider `CC(C)(C)C1=CC(=C2C(=O)C(=O)c3ccccc3C2=O)C=C(C(C)(C)C)C1=O`, for which the GI50 in experiment [2] was 36.2 µM (inactive); in experiment [3] it was 75.3 µM (inactive); in experiment [4], > 100 µM (inactive); in experiment [5], > 100 µM (inactive); in experiment [6], 26.9 µM (inactive); in [7], 59.8 µM (inactive). Further, the GI50 in [8] was 31.3 µM (inactive).

In the case of `COc1ccc(C(=O)O/N=C2\CCCC\C2=C/c2ccccc2)cc1`, the GI50 in experiment [1] was 35.5 µM (inactive); in experiment [2], 51.5 µM (inactive); in experiment [3], > 100 µM (inactive); in experiment [9], > 100 µM (inactive); in experiment [4], 34 µM (inactive); in [5], > 100 µM (inactive). For the same molecule, the values for the GI50 in experiment [6], in experiment [7] and in [8] were > 100 µM (inactive), > 100 µM (inactive) and 80.7 µM (inactive), respectively.

As for `COC1[C@H](NC(=O)OC(C)(C)C)C(=O)N1Cc1ccccc1` (stereo not given in full), the GI50 in experiment [1], in experiment [3], in experiment [4], in [5], in experiment [6] and in [7] was > 100 µM (inactive) each time. Also, in experiment [8], the GI50 is > 100 µM (inactive).

As to `CC(C)C(=O)N[C@@H](C)C(=O)N(Cc1ccc2ccccc2c1)N=O`, the GI50 was > 100 µM (inactive) in [1]; 0.057 µM (active) in [2]; 97.7 µM (inactive) in experiment [3]; > 100 µM (inactive) in experiment [4]; > 100 µM (inactive) in [5]; 71.9 µM (inactive) in experiment [6]. Also, the GI50 is 28.8 µM (inactive) in [7] and 33.7 µM (inactive) in [8].

Consider `O=C1C=C(O)C(=Cc2c(O)cc(O)cc2O)C(O)=C1`, for which the GI50 in experiment [1], in [2], in experiment [3], in [9], in experiment [4] and in experiment [5] was > 100 µM (inactive) in each case. For the same molecule, the GI50 in [6], in experiment [7] and in experiment [8] was > 100 µM (inactive) throughout.

As to `C#CCNC(=O)NCCCC(NC(C)=O)C(=O)NCc1ccccc1` (stereo not given), the GI50 in [2], in experiment [3], in experiment [9], in experiment [4], in experiment [5] and in [6] was > 100 µM (inactive) each time. In addition, in experiment [8], the GI50 was > 100 µM (inactive).

As to `Cc1ccc(C2=NO[C@@H]3C(=O)N(c4ccc(Cc5ccc(N6C(=O)[C@H]7C(c8ccc(C)cc8)=NO[C@H]7C6=O)cc5)cc4)C(=O)[C@H]23)cc1`, the GI50 in experiment [1], in experiment [2], in experiment [3], in experiment [9], in experiment [4] and in experiment [5] was > 100 µM (inactive) in each case. Also, the GI50 in experiment [6], in experiment [7] and in [8] was > 100 µM (inactive) throughout.

`CCCC(=O)C(CC)/C(CCC(=O)N(Cc1ccccc1)Cc1ccccc1)=N/NC(=O)C[N+](C)(C)C` (stereo not given): the GI50 was 65.2 µM (inactive) in [1]; > 100 µM (inactive) in [2]; > 100 µM (inactive) in [3]; > 100 µM (inactive) in [4]; > 100 µM (inactive) in experiment [5]; > 100 µM (inactive) in experiment [6]. Besides, the GI50 in [7] and in experiment [8] was > 100 µM (inactive) each time.

For `CCCC(=O)Nc1ccc(O)c2c1C1CCCCCC21` (stereo not given), the GI50 was 65 µM (inactive) in experiment [1]; > 100 µM (inactive) in experiment [2]; > 100 µM (inactive) in [3]; > 100 µM (inactive) in [4]; > 100 µM (inactive) in [5]; > 100 µM (inactive) in [6]. Besides, the GI50 in [7] is > 100 µM (inactive); in [8] it was 50.2 µM (inactive).
